Columns and labels:
[1] = system: pancreatic islet allografts; conditions: no IRI control, cited from earlier work
[2] = system: heart allograft (PVG donor, DA recipient); assay: Rat heterotopic cardiac transplantation: heart allograft survival; type: in vivo; conditions: for heart allograft survival times, mean / heart allograft survival times, median: PVG-DA allograft
Method: Inbred rat strains PVG (RT1c) (donor) and DA (RT1a) (recipient) used for heart and renal transplantation were housed under standard conditions. All procedures were approved and audited by an Animal Care and Ethics Committee in Australia.
Heterotopic cardiac transplants were done using a standard technique (10). Cardiac function was assessed daily by abdominal palpation. The end point of cardiac transplant survival was defined as the last day of palpable heart beating. Care of all rats in this study complied with the Animal Research Act 1985 (NSW, Australia). The protocols were designed to minimise pain and discomfort to the animals. Animals were acclimatised to laboratory conditions (22° C., 12 h cycle of light and dark, 50% humidity, ad libitum access to food and water) for a minimum of 1 wk. prior to experimentation. Intragastric gavage administration was carried out with conscious animals, using curved gavage needles appropriate for animal size (250-300 gm body weight: Gauge 16, 100 mm). All transplanted rats were given post-operative analgesia (Carprofen 4 mg/kg every 12-24 h subcutaneously). They were euthanized by approved carbon dioxide asphyxiation when the heart stopped beating prior to tissue procurement.
(§1) Studies about gene expression of heparanase were performed on lymphoid cells from transplanted kidney tissue and peripheral blood on day 6 after transplantation. This time frame encompassed the period of maximum rejection at day 6.
Castanospermine was administered by Alzet osmotic pumps (Alza Corporation, Palo Alto, United States) at an immunosuppressive dose of 150 mg/kg per day. OGT 2115 treatment started on the first post operative day and the Castanospermine treatment started on the day of the transplant.
An experiment was conducted comparing heart allograft survival in 6 groups of inbred rats.
These tests were assessed using the Wilcoxon rank sum test procedure. The mean, median, min, max and the first and third quartiles are presented for each group, as well as the estimated difference in location parameters with 95% confidence intervals. The difference in location parameters is the median of the difference between a sample from the first group and a sample from the second group.

[3] = system: heparanase (HPSE) expression in peripheral blood lymphoid cells; assay: Heparanase expression (ddPCR, fractional abundance of cDNA) in peripheral blood lymphoid cells of kidney transplanted rats; type: in vivo, rat; conditions: day 6 after transplantation
Method: (§2) Left orthotopic renal transplants were performed with a mean anastomosis time of 37±4 minutes using a standard technique (11), which would be well known to the skilled person. The procured kidney was perfused with 2 ml Custodial HTK solution (Chemie GMBH, Alsbach-Hähnlein, Germany) at […]. Transplanted rats were given analgesia (Carprofen 5 mg/kg every 12-24 hours subcutaneously) and a prophylactic antibiotic (Enrofloxacin 5 mg/kg SC 12 hourly) for 3 days. The transplanted kidney and blood were procured on day 6 immediately after euthanasia by CO2 asphyxiation. The kidney and blood were used for measurements of gene expression in intragraft lymphoid cells and peripheral blood mononuclear cells.
as §1
Castanospermine was administered by Alzet osmotic pumps (Alza Corporation, Palo Alto, United States) at an immunosuppressive dose of 150 mg/kg per day. […]
RNA was manually extracted using the RNeasy Plus Mini Kit as per the manufacturer's instructions (Qiagen, Hilden, Germany). […] The quality of the RNA was measured using the Nanodrop 2000 (ThermoFisher Scientific, MA, USA) and quantified using the Qubit 2.0 Fluorometer (Invitrogen, MA, USA), RNA was stored at […]. […]
Custom ddPCR assays were designed using the IDT PrimerQuest™ Tool, Prime Time qPCR assay (IDT, Singapore). […] A 25 ul reaction containing, ddPCR SuperMix for Probes (No dUTP) (Bio-Rad, Hercules, CA, USA), a hypoxanthine-guanine phosphoribosyl transferase reference control (HPRT-1) and heparanase target probes (HPSE) (IDT, Singapore). cDNA and water were created for each sample and added to a 96 well plate ready for ddPCR droplet generation. […]
The samples were left on the cycler for a minimum of 4 hours at 4° C. The droplets were then read on the QX200 Droplet Reader and analysed using QuantaSoft Software (Bio-Rad, Hercules, CA, USA). […]

serum heparan sulphate = assay: ELISA assay for serum heparan sulphate after renal allotransplantation; type: in vivo, rat; conditions: combined days 2, 4, 6
Method: as §2
(§3) Groups used in this study are set out in Tables 6 and 7. Comparisons were made between an isograft control treatment group (i.e., a control for ischaemia reperfusion injury), a non-treated allograft group, and Castanospermine-treated allograft group. A primary comparison was made between the non-treated group versus the Castanospermine-treated group. […]
Serum samples, separated from whole blood were aliquoted and stored at −80° C. […] Absorbance was immediately measured at 450 nm on a Versa Max Microplate Reader (Molecular Devices, Sunnyvale, California, USA) and the results calculated in ng/ml according to the internal standard curve. […]

[4] = system: heparanase (HPSE) expression in kidney transplant lymphoid cells; assay: Heparanase expression (ddPCR, fractional abundance of cDNA) in lymphoid cells from kidney transplants; type: in vivo, rat; conditions: Cast 150 mg/kg minus Non-Treated; day 6 after transplantation
Method: RNA was manually extracted using the RNeasy Plus Mini Kit as per the manufacturer's instructions (Qiagen, Hilden, Germany). […] The quality of the RNA was measured using the Nanodrop 2000 (ThermoFisher Scientific, MA, USA) and quantified using the Qubit 2.0 Fluorometer (Invitrogen, MA, USA), RNA was stored at −800 C. […]

[5] = system: heparan sulphate in the renal allotransplant; assay: H-scores for heparan sulphate in the renal allotransplant by digital image pathology; type: in vivo, rat; conditions: for H-score for heparan sulphate, estimate of difference: day 6 after transplantation
Method: as §2, §3
Whole slide digital images were acquired using an Aperio AT2 (Leica Biosystems, Wetzlar, Germany) at 20× magnification before analysis using the HALO v2.0 software (Indica laboratory, Corrales, New Mexico, USA). After selecting tissue areas, the percentage of total pixels with weak, moderate and strong staining intensity was measured using the ‘Area Quantification V1.0’ algorithm. Histology-score quantitation was calculated for each slide as H-score=(1×weak %)+(2×moderate %)+(3×strong %) providing a range from 0 to 300 (30). 4-6 sections per sample were scored at different levels through the tissue to obtain an average. […]
Three treatment Groups were studied at day 6 after transplantation. […] H Score quantitation is calculated for each slide as H-score=(1×weak %)+(2×moderate %)+(3×strong %) giving a score ranging from 0 to 300. There were 4-6 slides per kidney sample from one rat scored (each taken at different levels through the tissue) to obtain an average for that rat. […]

[6] = system: ischaemia reperfusion injury; conditions: reference (2); cited from earlier work
[7] = Group 4: OGT 2115 2.5 mg/kg subcutaneously
[8] = Group 5: OGT 2115 5 mg/kg subcutaneously
[9] = Group 6: 10 mg/Kg, Wilcoxon difference in location
[10] = Group 6: OGT 2115 10 mg/kg subcutaneously
[11] = Castanospermine (150 mg/kg per day) v Isograft
[12] = Non-treated v Castanospermine (150 mg/kg per day)

In the case of PI 88, the “rejection of islet allografts (in words)” value ([1]; WO 2008/046162, example 8 and FIG. 10) is listed as “curtails rejection of islet allografts” and the “survivals of pancreatic islet allografts (in words)” value ([1]; WO 2011/109877, Example 7 and FIG. 15) is listed as “prolonged”.

In the case of `O=C(O)Cc1ccc2oc(-c3ccc(NC(=O)/C=C/c4ccc(Br)cc4)c(F)c3)nc2c1` [OGT 2115], the “survival of the heart allotransplant grafts (in words)” value ([2]; 2.5, 5 and 10 mg/Kg, Table 2 and FIG. 1) is reported as “prolonged the survival”, the “heart allograft survival times, mean” value [2, 7] is reported as 7.40 days and the “heart allograft survival times, median” value [2, 7] is reported as 8 days. For the same compound, the “heart allograft survival times, mean” value [2, 8] was 7.33 days, the “heart allograft survival times, median” value [2, 8] was 7 days and the “estimated increase in survival compared to DMSO” value [2, 9] was 3 days. The “estimated increase in survival compared to Non-treated PVG-DA” value [2, 9] was 2 days, the “heart allograft survival times, mean” value [2, 10] was 9.18 days and the “heart allograft survival times, median” value [2, 10] was 9 days. For the same compound, the “Estimated mean difference in heparanase levels (percent heparanase cDNA), peripheral blood samples” value ([3]; OGT 2115 10 mg/kg minus Isograft) was 17.0% and the “Estimated mean difference in heparanase levels (percent heparanase cDNA), peripheral blood samples” value ([3]; OGT 2115 10 mg/kg minus Non-Treated) was 35.9%.

In the case of `O[C@H]1[C@H](O)[C@@H](O)CN2CC[C@H](O)[C@H]12` [Castanospermine], the “serum heparan sulphate levels, ratio of estimate of difference” value (serum heparan sulphate; [11]) is reported as 1.05, the “serum heparan sulphate levels, ratio of estimate of difference” value (serum heparan sulphate; [12]) is reported as 1.72 and the “Estimated mean difference in heparanase levels (percent heparanase cDNA), kidney samples” value [4] is reported as −31.0%. For the same compound, the “Estimated mean difference in heparanase levels (percent heparanase cDNA), peripheral blood samples” value ([3]; Cast 150 mg/kg minus Non-Treated) was 22.1%, the “H-score for heparan sulphate, estimate of difference” value [5, 11] was −3.08 and the “H-score for heparan sulphate, estimate of difference” value [5, 12] was 34.78. The “breakdown of HSPG (in words)” value ([5]; in both the allotransplant and the serum from allotransplanted rats, 150 mg/kg per day) was “effectively stops the breakdown of HSPG”.

In the case of Roneparstat, the “ischaemia reperfusion injury (in words)” value [6] is listed as “curtail ischaemia reperfusion injury”.

— patent US20250295638A1, “METHODS OF TREATING ALLOGRAFT REJECTION” (Bargent Therapeutics Pty Ltd, priority 2022, published 2025)
